From the NIST ThermoML archive (doi:10.1021/je020114l) come the findings set out here.

± gives the expanded uncertainty stated by the source.

Broadly, the viscosity is the resistance of a fluid to flow.

The conditions of the series: 101.33 kPa, Liquid, Capillary tube (Ostwald / Ubbelohde) method.

Regarding `CCCCCl` [1-chlorobutane], the viscosity was found to be 0.4273 ± 0.0045 mPa·s (298.15 K) and 0.3645 ± 0.004 mPa·s (313.15 K).
In the same order, the values of `CCCCCC` [hexane] are 0.2944 ± 0.0034 mPa·s and 0.2537 ± 0.0031 mPa·s.
For `CCC(C)O` (stereo unspecified) [butan-2-ol], the viscosity by setting is: (298.15 K) 3.08 ± 0.027 mPa·s; (313.15 K) 1.794 ± 0.016 mPa·s.
